Test results: US7345009B2, “Substituted 4-hetaryl-pyrazolines as pest control agents” (Bayer CropScience AG, priority 2002, dated 2008)

How the values were obtained:
[1] = logP determination by reversed-phase HPLC (EEC directive 79/831 Annex V.A8), pH 2.3; assay type: physicochemical; settings: reversed-phase HPLC column (C18), HPLC C18, 43° C., Preparation Examples
Procedure: The logP values given in the tables and Preparation Examples above are determined in accordance with EEC directive 79/831 Annex V.A8 by HPLC (High Performance Liquid Chromatography) using a reversed-phase column (C 18). Temperature: 43° C.
The determination is carried out in the acidic range at pH 2.3 using the mobile phases 0.1% aqueous phosphoric acid and acetonitrile; linear gradient from 10% acetonitrile to 90% acetonitrile.
Calibration is carried out using unbranched alkan-2-ones (of 3 to 16 carbon atoms) with known logP values (determination of the logP values by retention times using linear interpolation between two successive alkanones).

[2] = tested on: caterpillars of the army worm (Spodoptera exigua); assay: Spodoptera exigua test (Example E); assay type: in vivo; settings: 500 ppm active compound; after 7 days; cabbage leaves dipped
Procedure: (§1) Solvent: 7 parts by weight of dimethylformamide
(§2) Emulsifier: 2 parts by weight of alkylaryl polyglycol ether
(§3) To produce a suitable preparation of active compound, 1 part by weight of active compound is mixed with the stated amounts of solvent and emulsifier, and the concentrate is diluted with emulsifier-containing water to the desired concentration.
Cabbage leaves (Brassica oleracea) are treated by being dipped into the preparation of active compound of the desired concentration and are populated with caterpillars of the army worm (Spodoptera exigua) while the leaves are still moist.
(§4) After the desired period of time, the kill in % is determined. 100% means that all caterpillars have been killed; 0% means that none of the caterpillars have been killed.

[3] = tested on: larvae of the mustard beetle (Phaedon cochleariae); assay: Phaedon larvae test (Example C); assay type: in vivo; settings: 500 ppm active compound; after 7 days; cabbage leaves dipped
Procedure: Phaedon larvae Test Solvent: 7 parts by weight of dimethylformamide Emulsifier: 2 parts by weight of alkylaryl polyglycol ether To produce a suitable preparation of active compound, 1 part by weight of active compound is mixed with the stated amounts of solvent and emulsifier, and the concentrate is diluted with emulsifier-containing water to the desired concentration. Cabbage leaves (Brassica oleracea) are treated by being dipped into the preparation of active compound of the desired concentration and are populated with larvae of the mustard beetle (Phaedon cochleariae) while the leaves are still moist.

[4] = tested on: caterpillars of the cotton bud worm (Heliothis armigera); assay: Heliothis armigera test (Example A); assay type: in vivo; settings: 500 ppm active compound; after 7 days; soya bean shoots dipped
Procedure: as §1, §2, §3
Soya bean shoots (Glycine max) are treated by being dipped into the preparation of active compound of the desired concentration and are populated with caterpillars of the cotton bud worm (Heliothis armigera) while the leaves are still moist.
as §4

[5] = tested on: caterpillars of the diamondback moth (Plutella xylostella); assay: Plutella test, cabbage leaf dip (Example D); assay type: in vivo; settings: 500 ppm active compound; after 7 days; cabbage leaves dipped
Procedure: as §1, §2, §3
Cabbage leaves (Brassica oleracea) are treated by being dipped into the preparation of active compound of the desired concentration and are populated with caterpillars of the diamondback moth (Plutella xylostella) while the leaves are still moist.
as §4

[6] = tested on: caterpillars of the army worm (Spodoptera frugiperda); assay: Spodoptera frugiperda test (Example F); assay type: in vivo; settings: 500 ppm active compound; after 7 days; cabbage leaves dipped
Procedure: Spodoptera frugiperda Test
as §1, §2, §3
Cabbage leaves (Brassica oleracea) are treated by being dipped into the preparation of active compound of the desired concentration and are populated with caterpillars of the army worm (Spodoptera frugiperda) while the leaves are still moist.
as §4

[7] = tested on: Heliothis virescens caterpillars; assay: Heliothis virescens test (Example B); assay type: in vivo; settings: 500 ppm active compound; after 7 days; soya bean shoots dipped
Procedure: as §1, §2, §3
Soya bean shoots (Glycine max) are treated by being dipped into the preparation of active compound of the desired concentration and are populated with Heliothis virescens caterpillars while the leaves are still moist.
as §4

Compound `Cn1nnnc1CC(=O)c1ccc(Cl)cc1` [2-(1-methyltetrazol-5-yl)-4′-chloroacetophenone] has a chromatographic logP [1] of 1.78.

`Cc1nnn(C2CNN=C2c2ccc(Cl)cc2)n1` (centres unmarked) [3-(4-chlorophenyl)-4-(5-methyltetrazol-2-yl)-4,5-dihydro-1H-pyrazole] gave a chromatographic logP [1] of 2.11.

Compound `Cc1nnn(CC(=O)c2ccc(Cl)cc2)n1` [2-(5-methyltetrazol-2-yl)-4′-chloroacetophenone] has a chromatographic logP [1] of 2.14.

`Cc1nnc(C2CNN=C2c2ccc(Cl)cc2)s1` (centres unmarked) [3-(4-chlorophenyl)-4-(2-methyl-1,3,4-thiadiazol-5-yl)-4,5-dihydro-1H-pyrazole] showed a chromatographic logP [1] of 1.77.

With `Cc1nnnn1CC(=O)c1ccc(Cl)cc1` [2-(5-methyltetrazol-1-yl)-4′-chloroacetophenone] the chromatographic logP [1] was 1.81.

Compound `Cc1nnn(C2CN(C(=O)N(CC#N)c3ccc(OC(F)(F)F)cc3)N=C2c2ccc(Cl)cc2)n1` (centres unmarked) [Example 2, N-cyanomethyl-N-trifluoromethoxy-3-(4-chlorophenyl)-4-(5-methyltetrazol-2-yl)-4,5-dihydro-1-pyrazolecarboxanilide] has a kill [2] of 100%, a kill [3] of 100% and a kill [4] of 100%. It also gave a kill [5] of 100%, a kill [6] of 100% and a chromatographic logP [1] of 3.68.

`Cn1nnc(CC(=O)c2ccc(Cl)cc2)n1` [2-(2-methyltetrazol-5-yl)-4′-chloroacetophenone] showed a chromatographic logP [1] of 2.03.

In the case of `Cc1nnc(C2CN(C(=O)Nc3ccc(OC(F)(F)F)cc3)N=C2c2ccc(Cl)cc2)s1` (centres unmarked) [Example 4, N-(4-trifluoromethoxy)-3-(4-chlorophenyl)-4-(5-methyl-1,3,4-thiadiazol-2-yl)-4,5-dihydro-1-pyrazolecarboxanilide], the kill [2] is reported as 100%, the kill [3] is reported as 100% and the kill [4] is reported as 100%. The kill [5] was 100%, the kill [6] was 100% and the chromatographic logP [1] was 3.77.

In the case of `O=C(Cc1nn[nH]n1)c1ccc(Cl)cc1` [2-tetrazol-5-yl-4′-chloroacetophenone], the chromatographic logP [1] is reported as 1.44.

With `Cc1nnn(C2CN(C(=O)Nc3ccc(OC(F)(F)F)cc3)N=C2c2ccc(Cl)cc2)n1` (centres unmarked) [Example 1, N-(4-trifluoromethoxy)-3-(4-chlorophenyl)-4-(5-methyltetrazol-2-yl)-4,5-dihydro-1-pyrazolecarboxanilide] the kill [2] was 100%, the kill [3] was 100% and the kill [5] was 100%. It also gave a kill [6] of 100%, a chromatographic logP [1] of 4 and a kill [7] of 100%.

In the case of `Cn1nnc(C2CNN=C2c2ccc(Cl)cc2)n1` (centres unmarked) [3-(4-chlorophenyl)-4-(2-methyltetrazol-5-yl)-4,5-dihydro-1H-pyrazole], the chromatographic logP [1] is reported as 1.67.
